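Interpolation was linear, between the two tested concentrations surrounding the appropriate level; five concentrations were tested over 48 hours in 96-well plates. GI50 = concentration required for 50% inhibition of growth.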 Activity calls are given as the source filed them. Cut-off read from the data, not from the text of the source: active = GI50 up to about 1.1 µM and inactive = higher.
Assays:
Assay in all cases: inhibition of tumour cell growth, NCI panel, 48 h
HOP-62 = system: HOP-62
SF-539 = system: SF-539
786-0 = system: 786-0
CCRF-CEM = system: CCRF-CEM
K562 = system: K562
CAKI-1 = system: CAKI-1
OVCAR-3 = system: OVCAR-3
SK-MEL-2 = system: SK-MEL-2
HL-60 = system: HL-60
SK-MEL-5 = system: SK-MEL-5
SK-OV-3 = system: SK-OV-3
TK-10 = system: TK-10
HT-29 = system: HT-29
UACC-257 = system: UACC-257
M14 = system: M14
MOLT-4 = system: MOLT-4
SF-268 = system: SF-268
SNB-19 = system: SNB-19
RXF 393 = system: RXF 393

SMILES	GI50 (HOP-62)	GI50 (SF-539)	GI50 (786-0)	GI50 (CCRF-CEM)	GI50 (K562)	GI50 (CAKI-1)	GI50 (OVCAR-3)	GI50 (SK-MEL-2)	GI50 (HL-60)	GI50 (SK-MEL-5)	GI50 (SK-OV-3)	GI50 (TK-10)	GI50 (HT-29)	GI50 (UACC-257)	GI50 (M14)	GI50 (MOLT-4)	GI50 (SF-268)	GI50 (SNB-19)	GI50 (RXF 393)
O=C1C(=O)N(c2ccc(Cl)cc2Cl)C(=O)C(=O)C1c1nc2ccccc2o1	> 100 µM (inactive)	> 100 µM (inactive)	> 100 µM (inactive)	93.8 µM (inactive)	> 100 µM (inactive)	> 100 µM (inactive)	> 100 µM (inactive)	> 100 µM (inactive)	> 100 µM (inactive)	> 100 µM (inactive)	> 100 µM (inactive)	> 100 µM (inactive)	> 100 µM (inactive)	> 100 µM (inactive)	> 100 µM (inactive)	> 100 µM (inactive)	> 100 µM (inactive)	> 100 µM (inactive)	–
[N-]=[N+]=Nc1ccccc1Oc1ccccc1	> 100 µM (inactive)	> 100 µM (inactive)	> 100 µM (inactive)	–	> 100 µM (inactive)	> 100 µM (inactive)	> 100 µM (inactive)	> 100 µM (inactive)	> 100 µM (inactive)	> 100 µM (inactive)	> 100 µM (inactive)	> 100 µM (inactive)	> 100 µM (inactive)	> 100 µM (inactive)	> 100 µM (inactive)	> 100 µM (inactive)	> 100 µM (inactive)	> 100 µM (inactive)	–
CC[N+](CC)(CC)Cc1cn(S(=O)(=O)c2ccccc2)c2ccccc12	> 100 µM (inactive)	> 100 µM (inactive)	> 100 µM (inactive)	> 100 µM (inactive)	> 100 µM (inactive)	> 100 µM (inactive)	> 100 µM (inactive)	> 100 µM (inactive)	> 100 µM (inactive)	> 100 µM (inactive)	–	> 100 µM (inactive)	> 100 µM (inactive)	> 100 µM (inactive)	> 100 µM (inactive)	> 100 µM (inactive)	> 100 µM (inactive)	> 100 µM (inactive)	–
CSc1ccc(-c2cn3ccsc3n2)c(O)c1	49.9 µM (inactive)	32.7 µM (inactive)	20.7 µM (inactive)	16.1 µM (inactive)	26.4 µM (inactive)	> 100 µM (inactive)	36.7 µM (inactive)	> 85.3 µM (inactive)	17 µM (inactive)	41 µM (inactive)	> 82.4 µM (inactive)	61.8 µM (inactive)	83.2 µM (inactive)	> 24.2 µM (inactive)	> 59.6 µM (inactive)	30.5 µM (inactive)	36.7 µM (inactive)	> 61.5 µM (inactive)	–
Cc1cc(=O)n2c(cc3cccccc32)n1	> 100 µM (inactive)	> 100 µM (inactive)	> 100 µM (inactive)	> 100 µM (inactive)	> 100 µM (inactive)	> 100 µM (inactive)	> 100 µM (inactive)	> 100 µM (inactive)	> 100 µM (inactive)	–	–	> 100 µM (inactive)	> 100 µM (inactive)	> 100 µM (inactive)	> 100 µM (inactive)	> 100 µM (inactive)	> 100 µM (inactive)	> 100 µM (inactive)	> 100 µM (inactive)
CCOC(=O)c1ccc(NC(=O)SCCC(=O)O)cc1	> 100 µM (inactive)	> 100 µM (inactive)	> 100 µM (inactive)	> 100 µM (inactive)	63.1 µM (inactive)	–	> 100 µM (inactive)	> 100 µM (inactive)	> 100 µM (inactive)	–	–	> 100 µM (inactive)	52.5 µM (inactive)	> 100 µM (inactive)	> 100 µM (inactive)	23 µM (inactive)	0.426 µM (active)	> 100 µM (inactive)	8.04 µM (inactive)
CC(C)(C)NC(=O)C12C3C4C1C1C2C3C41I (stereo not given)	–	> 100 µM (inactive)	> 100 µM (inactive)	> 100 µM (inactive)	> 100 µM (inactive)	> 100 µM (inactive)	–	> 100 µM (inactive)	> 100 µM (inactive)	–	–	> 100 µM (inactive)	> 100 µM (inactive)	> 100 µM (inactive)	–	> 100 µM (inactive)	–	> 100 µM (inactive)	–
CN(C)CCN1N=Nc2cccc3cccc1c23	> 100 µM (inactive)	> 100 µM (inactive)	> 100 µM (inactive)	> 47 µM (inactive)	> 65.2 µM (inactive)	69.7 µM (inactive)	> 100 µM (inactive)	> 100 µM (inactive)	> 46.8 µM (inactive)	> 88.7 µM (inactive)	> 100 µM (inactive)	> 100 µM (inactive)	45.6 µM (inactive)	> 100 µM (inactive)	> 100 µM (inactive)	35.2 µM (inactive)	> 100 µM (inactive)	> 100 µM (inactive)	–
COc1ccc([C@@H]2C[C@@H]3C(=O)OC(=O)[C@@H]3c3c2c2ccccc2n3C)cc1	> 100 µM (inactive)	> 100 µM (inactive)	> 100 µM (inactive)	> 100 µM (inactive)	> 100 µM (inactive)	> 100 µM (inactive)	> 100 µM (inactive)	> 100 µM (inactive)	> 100 µM (inactive)	–	> 100 µM (inactive)	> 100 µM (inactive)	> 100 µM (inactive)	> 100 µM (inactive)	> 100 µM (inactive)	> 100 µM (inactive)	> 100 µM (inactive)	> 100 µM (inactive)	–
Cc1cc([N+](=O)[O-])c(C)c2c1[nH]c1ccc(Cl)cc12	> 100 µM (inactive)	> 100 µM (inactive)	> 100 µM (inactive)	23.2 µM (inactive)	26.4 µM (inactive)	> 100 µM (inactive)	38.9 µM (inactive)	> 100 µM (inactive)	58.7 µM (inactive)	> 100 µM (inactive)	–	84.7 µM (inactive)	89.5 µM (inactive)	> 100 µM (inactive)	> 100 µM (inactive)	23.6 µM (inactive)	> 100 µM (inactive)	> 100 µM (inactive)	–
Nc1c(-c2ccc(Cl)cc2)[n+]([O-])c2ccccc2[n+]1[O-]	> 100 µM (inactive)	> 100 µM (inactive)	> 100 µM (inactive)	54.5 µM (inactive)	49.3 µM (inactive)	> 100 µM (inactive)	67.3 µM (inactive)	> 100 µM (inactive)	32.4 µM (inactive)	> 100 µM (inactive)	> 100 µM (inactive)	> 100 µM (inactive)	> 100 µM (inactive)	58.5 µM (inactive)	> 100 µM (inactive)	27.3 µM (inactive)	59.8 µM (inactive)	34.8 µM (inactive)	–
COc1ccc(OC)c2c1ccc1c(C)c3ccccc3c(C)c12	86.5 µM (inactive)	–	> 100 µM (inactive)	> 100 µM (inactive)	51.8 µM (inactive)	> 100 µM (inactive)	95.3 µM (inactive)	> 100 µM (inactive)	57.1 µM (inactive)	–	–	> 100 µM (inactive)	95.1 µM (inactive)	> 100 µM (inactive)	82 µM (inactive)	88.9 µM (inactive)	> 100 µM (inactive)	> 100 µM (inactive)	–

From ChEMBL document CHEMBL1201862, “PubChem BioAssay data set” (2004)
